Data as given in patent US10358431B1, “Antimicrobials from an epigenetics based fungal metabolite screening program” (University of South Florida, priority 2015, dated 2019).

Tests used:
MRSA [1] = assay: Pure compound activity against MRSA (ESKAPE pathogens); format: cell-based, Staphylococcus aureus; conditions: for IC50: pure compound
Leishmania donovani = assay: Infected macrophage model of the Leishmania donovani parasite; format: cell-based; conditions: for IC50: read-out: L. donovani IC50
MRSA [2] = assay: MRSA drug wash-out study / MBC99; format: cell-based, Staphylococcus aureus

Row | Substance | IC50 (MRSA [1]) [µM] | IC50 (Leishmania donovani) [µM] | also measured
1 | Phomopsichromin B [Compound 2] | 515 | 1.9 | 
2 | Phomopsichromin A [Compound 1] | 518 | 3 | 
3 | gentamicin [reference compound] |  |  | MRSA MBC99 (MRSA [2]): 20 µM
4 | Phomopsichromin E [Compound 5] | 515 | 0.8 | 
5 | LL-Z1272ε [Compound 6] |  |  | L. donovani IC50 (μM) (Leishmania donovani): neither phomopsichromin D (4) nor LL-Z1272ε (6) showed any activity; activity towards the macrophages (macrophages): neither phomopsichromin D (4) nor LL-Z1272ε (6) showed any activity
6 | Phomopsichromin C [Compound 3] | 58 | 0.67 | MIC against MRSA (MRSA [1]): 58 µM; drug wash-out study: bactericidal or not (MRSA [2]): bactericidal
7 | Phomopsichromin D [Compound 4] |  |  | L. donovani IC50 (μM) (Leishmania donovani): neither phomopsichromin D (4) nor LL-Z1272ε (6) showed any activity; activity towards the macrophages (macrophages): neither phomopsichromin D (4) nor LL-Z1272ε (6) showed any activity
